Data from PubChem BioAssay AID623936 (Southern Research Specialized Biocontainment Screening …, 2012).

System: Vero 76 cells viability (cytotoxicity)
Assay: Vero 76 cell cytotoxicity, dose response, cytotoxicity control, set 4 (AID 623936)

CN(C(=O)Cc1cccs1)c1nc2c(s1)CCCC2
CC50: 18.5 µM
